This note sets out measurements from PubChem BioAssay (NCI).

Holding throughout (test): NCI tumour cell line growth inhibition, 48 h
The test system of assay [1] is HCT-15 colon.
Assay [2] concerns SW-620 colon.
Assay [3] concerns HCC-2998 colon.
Assay [4] relates to MDA-MB-435.
The test system of assay [5] is LOX IMVI melanoma.
Assay [6] concerns UACC-257 melanoma.
In assay [7] the test system is SN12C renal.
The subject of assay [8] is M14 melanoma.
Assay [9] relates to NCI/ADR-RES ovarian.
Assay [10] has as its system RXF 393 renal.
In assay [11] the test system is COLO 205 colon.
Assay [12] deals with SF-268 CNS.
Assay [13] has as its system T-47D breast.

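Following 48 hours of exposure in 96-well plates, responses at five concentrations were used to interpolate endpoints linearly. Definition used: TGI = concentration required for complete inhibition of growth.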 Where a SMILES comes first, the peptide text is derived from it.

`CS(=O)(=O)O[C@H]1[C@H](O)c2ccccc2[C@@H]1N=[N+]=[N-]`: the TGI in assay [1], in [2], in assay [3], in assay [4], in [5] and in assay [6] was over 100 µM throughout. In addition, the TGI in [7], in [8], in [9], in [10] and in assay [11] was over 100 µM throughout.

`CC(C)(C)[Si](C)(C)OCC1OC(n2ccc(=O)[nH]c2=O)C(O[Si](C)(C)C(C)(C)C)[C@]12O[C@@H]2CO` (stereo not given in full): the TGI was found to be 31.1 µM in assay [1]; 58.7 µM in assay [2]; 81.7 µM in assay [3]; 35.3 µM in assay [4]; 40.9 µM in assay [5]; 39.7 µM in assay [6]. Besides, the TGI worked out at 36.3 µM in assay [7]; 43.2 µM in assay [8]; 44 µM in assay [9]; 42.5 µM in [12]; 42.9 µM in assay [11].

As for `CC(C(=O)n1ccnc1)N1c2ccccc2Sc2ccccc21` (stereo not given), the TGI in assay [1], in [2], in [4], in assay [5], in assay [6] and in assay [7] was over 100 µM throughout. For the same compound, the TGI in assay [8], in [9], in assay [12], in assay [10], in [11] and in [13] was over 100 µM in each case.

Take `C[N+]12C=CC=C1C(N1CCCC1)c1scc(-c3ccc(F)cc3)c12` (stereo not given): the TGI in assay [2], in [4], in assay [5], in assay [7], in assay [8] and in assay [9] was over 100 µM each time. The TGI in [12] was over 100 µM; in assay [10], over 100 µM; in assay [11], 51.3 µM; in [13], 80.5 µM.

Regarding `C#CCOCn1cc(C)c(=O)[nH]c1=O`, the TGI in assay [1], in [2], in [3], in assay [5], in [6] and in assay [7] was over 100 µM in each case. For the same compound, the TGI in assay [8], in assay [9], in assay [12], in assay [11] and in assay [13] was over 100 µM throughout.

On to `CCC(C)C(NC(=O)C(CC(C)C)NC(=O)CNC(=O)C(NC(=O)C1CCCN1C(=O)C(CC(C)C)NC(=O)C(N)Cc1ccccc1)C(C)CC)C(=O)NC(CC(C)C)C(N)=O` (stereo not given) (H-FLPIGLIL-NH2; configuration not given here), for which the TGI in assay [1], in assay [2], in [4], in assay [5], in assay [6] and in assay [7] was over 75 µM in each case. The TGI in assay [8], in assay [9], in [12], in assay [11] and in assay [13] was over 75 µM throughout.

`O=c1[nH]c2c(c(=O)[nH]1)C(c1ccc([N+](=O)[O-])cc1)c1c([nH]c(=O)[nH]c1=O)O2`: the TGI in assay [1], in [2], in [4], in [6], in [7] and in assay [8] was over 100 µM each time. The TGI in assay [12], in assay [10] and in assay [11] was over 100 µM throughout.

On to `COC(=O)C(c1ccc(OC)cc1)N1C(=O)[C@@H](NC(=O)c2ccccc2)[C@H]1[C@@H](C)O` (stereo not given in full), for which the TGI in assay [1], in assay [2], in assay [3], in assay [5], in assay [6] and in [7] was over 100 µM throughout. The TGI in assay [8], in [12], in [10] and in [11] was over 100 µM in each case.

As for `CCCCCCCCCCCCC(Br)C(C)=O` (stereo not given), the TGI in assay [1], in assay [2], in [3], in assay [5], in [6] and in assay [7] was over 100 µM throughout. The TGI in assay [8], in assay [12], in assay [10] and in assay [11] was over 100 µM throughout.

As to `NC(=O)Cn1c(=O)oc2cc(C(=O)CN3CCOCC3)ccc21`, the TGI in assay [2], in assay [4], in assay [5], in assay [7], in assay [8] and in [9] was over 100 µM in each case. Further, the TGI in [12], in [10] and in assay [11] was over 100 µM each time.

Consider `CC1=C(C(=O)CC(=O)C(=O)Nc2ccc(C)c(C)c2)Sc2ccccc2N1`, for which the TGI in assay [1], in [2], in [3], in [5], in assay [6] and in assay [7] was over 100 µM throughout. For the same compound, the TGI in assay [8], in [12], in assay [10] and in [11] was over 100 µM each time.

On to `S=C1CC(c2ccccc2)Sc2cc(Cl)ccc2N1` (stereo not given), for which the TGI is over 100 µM in [1]; 30 µM in [4]; over 100 µM in assay [5]; over 100 µM in [6]; over 100 µM in assay [7]; over 100 µM in assay [8]. Further, the TGI in [9] is 30.5 µM; in [12], 24.7 µM; in assay [10], 18.1 µM; in assay [11], over 100 µM; in [13], over 100 µM.
